This note sets out measurements from article PMC8213057, “Targeting ALK2: An Open Science Approach to Developing Therapeutics for the Treatment of Diffuse Intrinsic Pontine Glioma” (Journal of Medicinal Chemistry, 2020).

One experiment deals with T1, KSR1 (Homo sapiens, UniProt Q8IVT5).
T1 sequence (Q8IVT5 1-923): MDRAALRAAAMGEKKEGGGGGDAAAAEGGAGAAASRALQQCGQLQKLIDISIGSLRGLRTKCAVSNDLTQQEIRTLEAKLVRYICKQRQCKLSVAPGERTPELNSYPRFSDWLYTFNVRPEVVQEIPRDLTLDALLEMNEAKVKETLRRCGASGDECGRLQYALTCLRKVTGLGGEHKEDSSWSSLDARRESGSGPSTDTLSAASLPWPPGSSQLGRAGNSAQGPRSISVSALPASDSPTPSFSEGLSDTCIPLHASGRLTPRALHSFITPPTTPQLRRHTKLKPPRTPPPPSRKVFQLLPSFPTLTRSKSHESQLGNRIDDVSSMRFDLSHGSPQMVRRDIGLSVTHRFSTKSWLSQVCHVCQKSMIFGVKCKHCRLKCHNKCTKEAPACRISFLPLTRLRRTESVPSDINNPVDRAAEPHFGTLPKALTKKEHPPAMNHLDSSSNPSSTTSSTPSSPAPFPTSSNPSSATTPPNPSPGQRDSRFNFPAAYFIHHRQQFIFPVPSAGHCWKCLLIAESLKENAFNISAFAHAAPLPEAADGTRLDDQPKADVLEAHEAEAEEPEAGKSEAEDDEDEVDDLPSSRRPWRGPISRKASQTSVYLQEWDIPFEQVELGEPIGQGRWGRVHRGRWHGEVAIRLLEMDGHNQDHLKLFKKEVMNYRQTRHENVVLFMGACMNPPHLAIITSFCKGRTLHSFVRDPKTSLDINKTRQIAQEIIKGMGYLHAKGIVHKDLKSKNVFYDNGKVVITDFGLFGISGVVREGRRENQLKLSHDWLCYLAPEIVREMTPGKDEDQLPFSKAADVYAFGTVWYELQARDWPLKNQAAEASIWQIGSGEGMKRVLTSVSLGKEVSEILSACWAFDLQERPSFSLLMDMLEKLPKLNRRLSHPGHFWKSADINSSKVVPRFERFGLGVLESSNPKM
The conditions noted are these: 1 μM; Run 1, Run 2.

Another experiment concerns the target T2, KSR2 (Homo sapiens, UniProt Q6VAB6).
T2 sequence (Q6VAB6 1-950): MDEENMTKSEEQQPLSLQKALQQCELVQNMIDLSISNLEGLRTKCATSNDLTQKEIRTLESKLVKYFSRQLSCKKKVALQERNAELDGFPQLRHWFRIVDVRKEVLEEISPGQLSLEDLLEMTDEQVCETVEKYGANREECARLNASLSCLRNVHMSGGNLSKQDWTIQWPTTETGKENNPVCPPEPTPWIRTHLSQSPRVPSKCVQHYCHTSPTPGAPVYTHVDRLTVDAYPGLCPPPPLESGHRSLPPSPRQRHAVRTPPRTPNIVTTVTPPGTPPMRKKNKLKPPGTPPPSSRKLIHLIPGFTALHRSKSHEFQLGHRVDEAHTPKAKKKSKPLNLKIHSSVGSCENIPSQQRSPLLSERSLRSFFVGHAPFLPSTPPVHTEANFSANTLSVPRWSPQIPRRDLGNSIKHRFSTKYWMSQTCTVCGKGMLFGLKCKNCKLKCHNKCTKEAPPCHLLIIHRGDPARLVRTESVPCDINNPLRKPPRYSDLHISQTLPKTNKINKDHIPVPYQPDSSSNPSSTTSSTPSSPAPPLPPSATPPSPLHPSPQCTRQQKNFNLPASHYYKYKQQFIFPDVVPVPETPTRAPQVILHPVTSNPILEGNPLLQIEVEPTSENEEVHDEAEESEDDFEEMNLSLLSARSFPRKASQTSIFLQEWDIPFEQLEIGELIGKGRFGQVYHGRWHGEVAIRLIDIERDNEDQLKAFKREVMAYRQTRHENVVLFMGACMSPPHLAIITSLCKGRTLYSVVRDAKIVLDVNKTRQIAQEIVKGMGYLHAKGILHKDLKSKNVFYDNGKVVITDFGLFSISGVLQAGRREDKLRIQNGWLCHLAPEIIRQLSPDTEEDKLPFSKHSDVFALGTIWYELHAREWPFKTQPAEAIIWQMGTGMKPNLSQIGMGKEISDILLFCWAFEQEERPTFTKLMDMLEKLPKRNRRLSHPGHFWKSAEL
The experiment can be described thus: biochemical. The conditions noted are these: read-out: % enzyme activity, 1 μM; Run 1, Run 2.

The next experiment deals with T3, MAPKAPK5/PRAK (Homo sapiens, UniProt Q8IW41).
T3 sequence (Q8IW41 1-473): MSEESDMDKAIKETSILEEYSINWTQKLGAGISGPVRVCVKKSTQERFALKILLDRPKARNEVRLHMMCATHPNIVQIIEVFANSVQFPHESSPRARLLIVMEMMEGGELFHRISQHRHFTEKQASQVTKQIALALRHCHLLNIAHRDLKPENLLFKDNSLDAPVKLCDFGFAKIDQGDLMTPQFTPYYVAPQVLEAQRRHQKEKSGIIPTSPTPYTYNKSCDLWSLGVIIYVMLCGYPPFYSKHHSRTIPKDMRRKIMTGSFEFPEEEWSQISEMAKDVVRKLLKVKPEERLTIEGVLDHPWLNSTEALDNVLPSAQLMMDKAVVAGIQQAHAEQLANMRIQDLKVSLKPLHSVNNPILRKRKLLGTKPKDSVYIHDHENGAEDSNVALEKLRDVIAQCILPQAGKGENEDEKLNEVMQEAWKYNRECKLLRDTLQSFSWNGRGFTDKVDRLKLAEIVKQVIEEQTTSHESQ
The experiment can be described thus: biochemical. The conditions noted are these: read-out: % enzyme activity, 1 μM; Run 1, Run 2.

In the case of `COc1cc(-c2cncc(-c3ccc(N4CCN(C)CC4)cc3)c2C)cc(F)c1C(N)=O` [Compound 26a, 2-Fluoro-6-methoxy-4-(4-methyl-5-(4-(4-methylpiperazin-1-yl)phenyl)pyridin-3-yl)benzamide], the “% enzyme activity” value at KSR1 amounted to 93.83%. Further, the remaining activity at 1 µM on KSR2 was determined as 96.9%; at MAPKAPK5/PRAK it was 93.2%.
In the case of `COc1cc(-c2cncc(-c3ccc(N4C[C@@H](C)N(C)[C@@H](C)C4)cc3)c2C)cc(F)c1C(N)=O` [Compound 26c, 2-Fluoro-6-methoxy-4-(4-methyl-5-(4-((3R,5S)-3,4,5-trimethylpiperazin-1-yl)phenyl)pyridin-3-yl)benzamide], the “% enzyme activity” value on KSR1 is on record as 95.91%. Moreover, the remaining activity at 1 µM on KSR2 came to 98.5%; at MAPKAPK5/PRAK it was 94.7%.
